Results on three compounds are retold here after PMC9855333, “1-(Arylsulfonyl-isoindol-2-yl)piperazines as 5-HT6R Antagonists: Mechanochemical Synthesis, In Vitro Pharmacological Properties and Glioprotective Activity” (Biomolecules, 2022).

Data set [1] concerns the target T1, human 5-HT7b receptor (Homo sapiens, UniProt P34969).
T1 construct: expressed in transfected cells
Nature of the data set: Radioligand binding, [3H]-5-CT displacement, HEK-293 cells. The conditions noted are these: mean ± SEM, three independent binding experiments; read-out: Ki [nM] 5-HT7R. The method, then:
(§1) All experiments were performed in HEK-293 cells, which stably express the human 5-HT1A, 5-HT6, 5-HT7b, and D2L receptors, or using CHO-K1 cells expressing human serotonin 5-HT2A receptor, following the previously reported procedures. For displacement studies, the following radioligands (PerkinElmer, USA) at given concentrations were used at: 2.5 nM [^3H]-8-OH-DPAT (135.2 Ci/ mmol); 1 nM [^3H]-ketanserin (53.4 Ci/mmol); 2 nM [^3H]-LSD (83.6 Ci/mmol); 0.8 nM [^3H]-5-CT (39.2 Ci/mmol) or 2.5 nM [^3H]-raclopride (76.0 Ci/mmol) for 5-HT1A, 5-HT2A, 5-HT6, 5-HT7b and D2L receptors, respectively. All tested compounds were evaluated in triplicate at 7 concentrations (10^−10–10^−4 M). The inhibition constants (Ki) were calculated from the Cheng–Prusoff equation [25]. A detailed description is reported in the Supporting Information.
(§2) 1. Procedure for radioligand binding assay
(§3) All experiments were carried out according to the previously published procedures. HEK293 cells stably expressing human 5-HT1A, 5-HT6, 5-HT7b and D2L receptors (prepared with the use of Lipofectamine 2000) or CHO-K1 cells with plasmid containing the sequence coding for the human serotonin 5-HT2A receptor (Perkin Elmer) were maintained at 37 °C in a humidified atmosphere containing 5% CO2 and grown in Dulbecco’s Modified Eagle’s Medium containing 10% dialyzed fetal bovine serum and 500 μg/ml G418 sulfate. For membrane preparation, cells were cultured in 150 cm2 flasks, grown to 90% confluence, washed twice with pre-warmed to 37 °C phosphate buffered saline (PBS) and centrifuged (200 × g) in PBS containing 0.1 mM EDTA and 1 mM dithiothreitol. Prior to membrane preparation, pellets were stored at –80 °C. […]
(§4) The process of equilibration was terminated by rapid filtration through Unifilter plates with a 96-well cell harvester and radioactivity retained on the filters was quantified on a Microbeta plate reader (PerkinElmer, USA). […] The inhibition constants (Ki) were calculated from the Cheng-Prusoff equation [4].

Data set [2] concerns the target T2, human D2L receptor (Homo sapiens, UniProt P14416).
T2 construct: expressed in transfected cells
Nature of the data set: Radioligand binding, [3H]-raclopride displacement, HEK-293 cells. Conditions: mean ± SEM, three independent binding experiments; read-out: Ki [nM] D2. The method, then:
as §1, §2, §3, §4

A short description of data set [3]: Cytotoxicity, MTT test, SH-SY5Y. Type of data set: cell-based. Conditions: human, SH-SY5Y cells (human neuroblastoma). The method, then: Hepatotoxicity, neurotoxicity, and glial cytotoxicity were investigated using the following cellular models: human hepatocellular carcinoma (HepG2), human neuroblastoma (SHSY-5Y), and mouse astrocytes (C8-D1A), all from ATCC (American Type Culture Collection, Manassas, VA, USA). Cells were cultured in appropriate culture media recommended by ATCC supplemented with 10% fetal bovine serum (FBS; Gibco, Life Technologies, Carlsbad, CA, USA) and 1% antibiotic mixture (Gibco, Life Technologies, Carlsbad, CA, USA). Cells were cultured at standard conditions (5% CO2, 95% humidity, 37 °C). For cytotoxicity experiments, cells were seeded into 96 well plates at an initial density of 2000 cells/well. After overnight incubation, cells were treated with 3e, 3f, and 3g in a concentration range of 0.78–50 µM for 48 h; then, an MTT assay was performed as described previously. Briefly, following cell exposure, 10 µL of MTT reagent was added to each well. After the next 4 h, the medium was aspirated, and formazan produced in cells appeared as dark crystals in the bottom of the wells. Next, 100 µL DMSO was added to each well. Then, the optical density of the solution (OD) at 570 nm was determined on a plate reader (Spectra Max iD3, Molecular Devices, San Jose, CA, USA). The experiments were run three times in triplicates.

T2 sequence (P14416 whole entry): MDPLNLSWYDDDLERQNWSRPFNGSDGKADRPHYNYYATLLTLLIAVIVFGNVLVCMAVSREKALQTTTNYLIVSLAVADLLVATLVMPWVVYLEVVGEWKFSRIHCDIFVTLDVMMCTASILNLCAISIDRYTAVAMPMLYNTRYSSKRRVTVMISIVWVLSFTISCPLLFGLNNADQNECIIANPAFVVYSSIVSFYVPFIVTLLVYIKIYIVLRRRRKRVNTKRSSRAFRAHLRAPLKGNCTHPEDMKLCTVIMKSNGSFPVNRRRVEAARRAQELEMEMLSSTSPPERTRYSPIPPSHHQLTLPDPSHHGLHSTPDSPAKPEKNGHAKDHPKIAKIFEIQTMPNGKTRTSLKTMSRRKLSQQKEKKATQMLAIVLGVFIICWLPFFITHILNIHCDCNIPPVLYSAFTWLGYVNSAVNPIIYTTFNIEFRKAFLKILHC
T1 sequence (P34969 1-432 limits assumed): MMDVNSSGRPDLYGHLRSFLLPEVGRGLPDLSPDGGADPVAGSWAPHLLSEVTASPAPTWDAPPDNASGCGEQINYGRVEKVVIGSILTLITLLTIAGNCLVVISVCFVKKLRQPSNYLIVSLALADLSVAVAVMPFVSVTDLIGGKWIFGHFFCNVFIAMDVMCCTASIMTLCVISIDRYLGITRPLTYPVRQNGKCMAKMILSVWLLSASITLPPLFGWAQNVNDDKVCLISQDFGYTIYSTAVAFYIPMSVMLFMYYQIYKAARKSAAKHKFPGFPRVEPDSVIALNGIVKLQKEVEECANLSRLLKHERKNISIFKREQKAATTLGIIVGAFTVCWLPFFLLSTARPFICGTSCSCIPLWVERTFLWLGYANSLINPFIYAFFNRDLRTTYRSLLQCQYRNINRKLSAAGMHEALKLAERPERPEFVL

Regarding `O=S(=O)(c1cccc(N2CCNCC2)c1)N1Cc2cccc(Br)c2C1` [3g, 4-Bromo-2-{[3-(piperazin-1-yl)phenyl]sulfonyl}isoindoline], the figures for the Ki in data set [1] and in data set [2] were 8800 ± 854 nM and 2440 ± 324 nM, respectively. Besides, half-maximal inhibition in data set [3] (IC50 at 48 h) required 48 µM.
In the same order, the values of `O=S(=O)(c1cccc(N2CCNCC2)c1)N1Cc2ccccc2C1` [3e, 2-{[3-(Piperazin-1-yl)phenyl]sulfonyl}isoindoline] are 4530 ± 327 nM, 3420 ± 415 nM and 42 µM.
In the same order, the values of `O=S(=O)(c1cccc(N2CCNCC2)c1)N1Cc2cccc(Cl)c2C1` [3f, 4-Chloro-2-{[3-(piperazin-1-yl)phenyl]sulfonyl}isoindoline] are 10700 ± 1030 nM, 2030 ± 299 nM and 38 µM.

As a reminder, the Ki is the equilibrium dissociation constant of an inhibitor or competing ligand from its target. As a reminder, the IC50 is the concentration at which inhibition is half-maximal. Read a low IC50 as higher potency.
